From PubChem BioAssay (NCI)
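Values below derive from 48-hour exposures of cells grown in 96-well plates, with endpoints linearly interpolated between the two concentrations bracketing the appropriate inhibition level. At the GI50, growth is halved. TGI marks complete inhibition of growth.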

Columns and labels:
Experiment in all cases: NCI-60 cell line screen, 48 h
K-562 leukemia = test system: K-562 leukemia
NCI-H460 lung = test system: NCI-H460 lung
HCC-2998 colon = test system: HCC-2998 colon
OVCAR-3 ovarian = test system: OVCAR-3 ovarian
SR leukemia = test system: SR leukemia
A549 NSCLC = test system: A549 NSCLC
HT29 colon = test system: HT29 colon
SF-539 CNS = test system: SF-539 CNS
RXF 393 renal = test system: RXF 393 renal
OVCAR-5 ovarian = test system: OVCAR-5 ovarian
MOLT-4 leukemia = test system: MOLT-4 leukemia
SNB-19 CNS = test system: SNB-19 CNS
A498 renal = test system: A498 renal
M19-MEL melanoma = test system: M19-MEL melanoma
DMS 114 small cell lung = test system: DMS 114 small cell lung
TK-10 renal = test system: TK-10 renal
DMS 273 small cell lung = test system: DMS 273 small cell lung
SK-MEL-2 melanoma = test system: SK-MEL-2 melanoma
KM12 colon = test system: KM12 colon
HOP-62 NSCLC = test system: HOP-62 NSCLC
UO-31 renal = test system: UO-31 renal
IGROV1 ovarian = test system: IGROV1 ovarian
UACC-257 melanoma = test system: UACC-257 melanoma
UACC-62 melanoma = test system: UACC-62 melanoma
M14 melanoma = test system: M14 melanoma
SK-MEL-28 melanoma = test system: SK-MEL-28 melanoma
XF 498 CNS = test system: XF 498 CNS
EKVX NSCLC = test system: EKVX NSCLC
HCT-116 colon = test system: HCT-116 colon
KM20L2 colon = test system: KM20L2 colon
HCT-15 colon = test system: HCT-15 colon
SW-620 colon = test system: SW-620 colon
SF-268 CNS = test system: SF-268 CNS
SF-295 CNS = test system: SF-295 CNS
HOP-18 NSCLC = test system: HOP-18 NSCLC
SN12C renal = test system: SN12C renal
SNB-75 CNS = test system: SNB-75 CNS
CCRF-CEM leukemia = test system: CCRF-CEM leukemia
HOP-92 NSCLC = test system: HOP-92 NSCLC
RPMI-8226 leukemia = test system: RPMI-8226 leukemia
786-0 renal = test system: 786-0 renal
ACHN renal = test system: ACHN renal
COLO 205 colon = test system: COLO 205 colon
MALME-3M melanoma = test system: MALME-3M melanoma
SK-OV-3 ovarian = test system: SK-OV-3 ovarian
NCI-H226 lung = test system: NCI-H226 lung
OVCAR-4 ovarian = test system: OVCAR-4 ovarian
HL-60(TB) leukemia = test system: HL-60(TB) leukemia
OVCAR-8 ovarian = test system: OVCAR-8 ovarian
NCI-H23 lung = test system: NCI-H23 lung
DLD-1 colon = test system: DLD-1 colon
LOX IMVI melanoma = test system: LOX IMVI melanoma
LXFL 529 NSCLC = test system: LXFL 529 NSCLC
SK-MEL-5 melanoma = test system: SK-MEL-5 melanoma
SNB-78 CNS = test system: SNB-78 CNS
U251 CNS = test system: U251 CNS
CAKI-1 renal = test system: CAKI-1 renal
RXF-631 renal = test system: RXF-631 renal
NCI-H522 lung = test system: NCI-H522 lung

## COC(CN1C(=O)c2cccc3cccc(c23)C1=O)OC
K-562 leukemia
  TGI: > 100 µM
NCI-H460 lung
  TGI: > 100 µM
HCC-2998 colon
  TGI: > 100 µM
OVCAR-3 ovarian
  TGI: > 100 µM
SR leukemia
  TGI: > 100 µM
A549 NSCLC
  TGI: > 100 µM
HT29 colon
  TGI: > 100 µM
SF-539 CNS
  TGI: > 100 µM
RXF 393 renal
  TGI: > 100 µM
OVCAR-5 ovarian
  TGI: > 100 µM
MOLT-4 leukemia
  TGI: > 100 µM
SNB-19 CNS
  TGI: > 100 µM
A498 renal
  TGI: > 100 µM
M19-MEL melanoma
  TGI: > 100 µM
DMS 114 small cell lung
  TGI: > 100 µM
TK-10 renal
  TGI: > 100 µM
DMS 273 small cell lung
  TGI: > 100 µM
SK-MEL-2 melanoma
  TGI: 86.3 µM
KM12 colon
  TGI: > 100 µM
HOP-62 NSCLC
  TGI: > 100 µM
UO-31 renal
  TGI: > 100 µM
IGROV1 ovarian
  TGI: > 100 µM
UACC-257 melanoma
  TGI: > 100 µM
UACC-62 melanoma
  TGI: > 100 µM
M14 melanoma
  TGI: > 100 µM
SK-MEL-28 melanoma
  TGI: > 100 µM
XF 498 CNS
  TGI: > 100 µM
EKVX NSCLC
  TGI: > 100 µM
HCT-116 colon
  TGI: > 100 µM
KM20L2 colon
  TGI: > 100 µM
HCT-15 colon
  TGI: > 100 µM
SW-620 colon
  TGI: > 100 µM
SF-268 CNS
  TGI: > 100 µM
SF-295 CNS
  TGI: > 100 µM
HOP-18 NSCLC
  TGI: > 100 µM
SN12C renal
  TGI: > 100 µM
SNB-75 CNS
  TGI: > 100 µM
CCRF-CEM leukemia
  TGI: > 100 µM
HOP-92 NSCLC
  TGI: > 100 µM
RPMI-8226 leukemia
  TGI: > 100 µM
786-0 renal
  TGI: > 100 µM
ACHN renal
  TGI: > 100 µM
COLO 205 colon
  TGI: > 100 µM
MALME-3M melanoma
  TGI: > 100 µM
SK-OV-3 ovarian
  TGI: > 100 µM
NCI-H226 lung
  TGI: > 100 µM
OVCAR-4 ovarian
  TGI: > 100 µM
HL-60(TB) leukemia
  TGI: > 100 µM
OVCAR-8 ovarian
  TGI: > 100 µM
NCI-H23 lung
  TGI: > 100 µM
DLD-1 colon
  TGI: > 100 µM
LOX IMVI melanoma
  TGI: > 100 µM
LXFL 529 NSCLC
  TGI: > 100 µM
SK-MEL-5 melanoma
  TGI: > 100 µM
SNB-78 CNS
  TGI: > 100 µM
U251 CNS
  TGI: > 100 µM

## O=C(N/C(=C\c1ccc(/C=C(\NC(=O)c2ccccc2)c2nc3cc([N+](=O)[O-])ccc3[nH]2)cc1)c1nc2cc([N+](=O)[O-])ccc2[nH]1)c1ccccc1
K-562 leukemia
  TGI: > 100 µM
HCC-2998 colon
  TGI: 77.2 µM
OVCAR-3 ovarian
  TGI: > 100 µM
A549 NSCLC
  TGI: > 100 µM
HT29 colon
  TGI: > 100 µM
SF-539 CNS
  TGI: > 100 µM
RXF 393 renal
  TGI: > 100 µM
OVCAR-5 ovarian
  TGI: > 100 µM
CAKI-1 renal
  TGI: > 100 µM
MOLT-4 leukemia
  TGI: > 100 µM
SNB-19 CNS
  TGI: > 100 µM
A498 renal
  TGI: > 100 µM
M19-MEL melanoma
  TGI: > 100 µM
DMS 114 small cell lung
  TGI: > 100 µM
RXF-631 renal
  TGI: > 100 µM
TK-10 renal
  TGI: 78.5 µM
DMS 273 small cell lung
  TGI: > 100 µM
SK-MEL-2 melanoma
  TGI: 83.3 µM
HOP-62 NSCLC
  TGI: > 100 µM
UO-31 renal
  TGI: > 100 µM
IGROV1 ovarian
  TGI: > 100 µM
UACC-257 melanoma
  TGI: > 100 µM
UACC-62 melanoma
  TGI: > 100 µM
M14 melanoma
  TGI: > 100 µM
SK-MEL-28 melanoma
  TGI: 69.8 µM
NCI-H522 lung
  TGI: 50 µM
EKVX NSCLC
  TGI: > 100 µM
HCT-116 colon
  TGI: > 100 µM
KM20L2 colon
  TGI: > 100 µM
HCT-15 colon
  TGI: > 100 µM
SW-620 colon
  TGI: > 100 µM
SF-268 CNS
  TGI: > 100 µM
SF-295 CNS
  TGI: > 100 µM
HOP-18 NSCLC
  TGI: > 100 µM
SN12C renal
  TGI: > 100 µM
SNB-75 CNS
  TGI: > 100 µM
CCRF-CEM leukemia
  TGI: > 100 µM
HOP-92 NSCLC
  TGI: > 100 µM
RPMI-8226 leukemia
  TGI: > 100 µM
786-0 renal
  TGI: > 100 µM
ACHN renal
  TGI: > 100 µM
COLO 205 colon
  TGI: > 100 µM
MALME-3M melanoma
  TGI: > 100 µM
SK-OV-3 ovarian
  TGI: > 100 µM
OVCAR-4 ovarian
  TGI: > 100 µM
OVCAR-8 ovarian
  TGI: > 100 µM
NCI-H23 lung
  TGI: > 100 µM
DLD-1 colon
  TGI: > 100 µM
LOX IMVI melanoma
  TGI: > 100 µM
LXFL 529 NSCLC
  TGI: > 100 µM
SK-MEL-5 melanoma
  TGI: > 100 µM
SNB-78 CNS
  TGI: > 100 µM
U251 CNS
  TGI: > 100 µM

## O=C([O-])CC(=O)[O-].O=C([O-])CC(=O)[O-].[K+].[Pd+2]
NCI-H460 lung
  GI50: > 100 µM
  TGI: > 100 µM
HCC-2998 colon
  GI50: > 100 µM
  TGI: > 100 µM
OVCAR-3 ovarian
  GI50: > 100 µM
  TGI: > 100 µM
SR leukemia
  GI50: > 100 µM
  TGI: > 100 µM
A549 NSCLC
  GI50: > 100 µM
  TGI: > 100 µM
SF-539 CNS
  GI50: > 100 µM
  TGI: > 100 µM
RXF 393 renal
  GI50: > 100 µM
  TGI: > 100 µM
OVCAR-5 ovarian
  GI50: > 100 µM
  TGI: > 100 µM
CAKI-1 renal
  GI50: > 100 µM
  TGI: > 100 µM
SNB-19 CNS
  GI50: > 100 µM
  TGI: > 100 µM
TK-10 renal
  GI50: > 100 µM
  TGI: > 100 µM
DMS 273 small cell lung
  GI50: > 100 µM
  TGI: > 100 µM
SK-MEL-2 melanoma
  GI50: > 100 µM
  TGI: > 100 µM
UO-31 renal
  GI50: > 100 µM
  TGI: > 100 µM
UACC-62 melanoma
  GI50: > 100 µM
  TGI: > 100 µM
M14 melanoma
  GI50: > 100 µM
  TGI: > 100 µM
SK-MEL-28 melanoma
  GI50: > 100 µM
  TGI: > 100 µM
NCI-H522 lung
  GI50: > 100 µM
  TGI: > 100 µM
EKVX NSCLC
  GI50: > 100 µM
  TGI: > 100 µM
HCT-116 colon
  GI50: > 100 µM
  TGI: > 100 µM
KM20L2 colon
  GI50: > 100 µM
  TGI: > 100 µM
HCT-15 colon
  GI50: > 100 µM
  TGI: > 100 µM
SW-620 colon
  GI50: > 100 µM
  TGI: > 100 µM
SF-295 CNS
  GI50: > 100 µM
  TGI: > 100 µM
HOP-18 NSCLC
  GI50: > 100 µM
  TGI: > 100 µM
SN12C renal
  GI50: > 100 µM
  TGI: > 100 µM
SNB-75 CNS
  GI50: > 100 µM
  TGI: > 100 µM
RPMI-8226 leukemia
  GI50: > 100 µM
  TGI: > 100 µM
COLO 205 colon
  GI50: > 100 µM
  TGI: > 100 µM
MALME-3M melanoma
  GI50: > 100 µM
  TGI: > 100 µM
NCI-H226 lung
  GI50: > 100 µM
  TGI: > 100 µM
OVCAR-4 ovarian
  GI50: > 100 µM
  TGI: > 100 µM
OVCAR-8 ovarian
  GI50: > 100 µM
  TGI: > 100 µM
NCI-H23 lung
  GI50: > 100 µM
  TGI: > 100 µM
DLD-1 colon
  GI50: > 100 µM
  TGI: > 100 µM
LOX IMVI melanoma
  GI50: > 100 µM
  TGI: > 100 µM
LXFL 529 NSCLC
  GI50: > 100 µM
  TGI: > 100 µM
SK-MEL-5 melanoma
  GI50: > 100 µM
  TGI: > 100 µM
SNB-78 CNS
  GI50: > 100 µM
  TGI: > 100 µM
U251 CNS
  GI50: > 100 µM
  TGI: > 100 µM
